Results from PMC13077603, “Fluorine‐18‐Labeled Nucleotide Analogs Targeting Ecto‐5'‐Nucleotidase (CD73) for Positron Emission Tomography Imaging of Solid Tumors” (Angewandte Chemie (International Ed. in English), 2026).

Molecular target: T1, Soluble recombinant rat CD73 (Rattus norvegicus, UniProt P21588)
T1 sequence (P21588 29-551 limits assumed): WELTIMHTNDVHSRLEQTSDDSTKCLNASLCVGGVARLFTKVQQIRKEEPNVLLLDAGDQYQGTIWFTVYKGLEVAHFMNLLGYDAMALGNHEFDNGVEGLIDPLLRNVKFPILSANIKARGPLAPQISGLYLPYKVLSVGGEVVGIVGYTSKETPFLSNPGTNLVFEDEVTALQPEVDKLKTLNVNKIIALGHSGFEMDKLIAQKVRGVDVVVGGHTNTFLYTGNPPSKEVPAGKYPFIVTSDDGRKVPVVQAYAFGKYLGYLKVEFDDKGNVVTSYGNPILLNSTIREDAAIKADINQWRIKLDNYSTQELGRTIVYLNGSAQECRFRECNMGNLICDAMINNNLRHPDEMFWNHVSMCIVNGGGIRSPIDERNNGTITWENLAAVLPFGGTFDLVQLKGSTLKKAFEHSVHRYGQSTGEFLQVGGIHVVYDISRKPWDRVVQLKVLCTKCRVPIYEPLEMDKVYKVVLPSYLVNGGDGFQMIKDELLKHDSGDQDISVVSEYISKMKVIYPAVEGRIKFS
Assay: CD73 enzyme inhibition assay, soluble rat CD73
Type: biochemical
Conditions: soluble recombinant rat CD73, Km 59 µM, substrate AMP (5 µM)
Description: Both compounds were evaluated for metabolic stability in mouse liver microsomes (MLM) and plasma protein binding (PPB) (Table 1).
The CD73 enzyme inhibition assay of recombinant soluble CD73, membrane-bound human CD73, soluble rat CD73 and mouse CD73 was performed as previously described.^[16,35^]

- Ki: 6.09 nM
SMILES: CCCN(Cc1ccc(-c2cn(CCF)nn2)cc1)c1nc(Cl)nc2c1ncn2[C@@H]1O[C@H](COP(=O)(O)CP(=O)(O)O)[C@@H](O)[C@H]1O [compound 1]
